Measured values reported in US20240246967A1, “AXL COMPOUNDS” (ARCUS BIOSCIENCES, INC., priority 2021, published 2024).

What was measured:
[1] = molecular target: T1, human MER (Homo sapiens, UniProt Q12866); experiment: HTRF KinEASE-TK biochemical potency assay, MER; conditions: 1 nM MER, 700 μM ATP, 800 nM TK Substrate-biotin
T1 construct: purchased Invitrogen
T1 sequence (Q12866 21-999): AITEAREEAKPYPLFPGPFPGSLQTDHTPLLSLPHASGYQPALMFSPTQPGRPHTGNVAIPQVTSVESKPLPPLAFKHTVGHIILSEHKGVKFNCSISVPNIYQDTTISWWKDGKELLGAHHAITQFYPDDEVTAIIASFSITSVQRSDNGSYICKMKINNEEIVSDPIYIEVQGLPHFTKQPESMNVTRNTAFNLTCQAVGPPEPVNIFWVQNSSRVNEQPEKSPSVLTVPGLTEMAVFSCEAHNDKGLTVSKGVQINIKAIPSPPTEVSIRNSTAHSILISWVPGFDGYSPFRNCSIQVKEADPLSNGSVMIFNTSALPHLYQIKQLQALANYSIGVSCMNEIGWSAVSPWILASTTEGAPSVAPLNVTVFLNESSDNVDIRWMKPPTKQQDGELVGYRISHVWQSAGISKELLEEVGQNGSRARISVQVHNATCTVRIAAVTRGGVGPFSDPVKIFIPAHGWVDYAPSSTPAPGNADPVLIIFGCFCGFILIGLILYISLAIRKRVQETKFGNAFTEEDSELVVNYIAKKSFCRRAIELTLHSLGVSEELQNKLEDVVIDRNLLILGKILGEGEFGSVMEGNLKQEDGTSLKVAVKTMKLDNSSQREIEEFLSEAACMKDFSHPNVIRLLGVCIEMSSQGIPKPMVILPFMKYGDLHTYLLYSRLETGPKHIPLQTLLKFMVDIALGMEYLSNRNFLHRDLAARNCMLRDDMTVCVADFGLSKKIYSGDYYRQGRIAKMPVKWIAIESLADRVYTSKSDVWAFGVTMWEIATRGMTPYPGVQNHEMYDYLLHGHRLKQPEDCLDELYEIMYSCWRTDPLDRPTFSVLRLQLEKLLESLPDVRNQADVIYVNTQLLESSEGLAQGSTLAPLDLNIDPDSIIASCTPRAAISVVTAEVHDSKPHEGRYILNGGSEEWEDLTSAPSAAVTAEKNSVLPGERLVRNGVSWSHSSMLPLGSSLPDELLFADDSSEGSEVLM
How it was run: (§1)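 Enzyme (final 5 nM AXL; 1 nM TYRO3 or MER) plus compound, 1 h RT → add biotinylated TK substrate (800 nM final) and ATP (700 μM final) → 2 h RT → stop into HTRF detection mix → read 665/620 nm. Activity normalised to DMSO and pre-stopped blanks.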

[2] = molecular target: T2, human TYRO3 (Homo sapiens, UniProt Q06418); experiment: HTRF KinEASE-TK biochemical potency assay, TYRO3; conditions: 1 nM TYRO3, 700 μM ATP, 800 nM TK Substrate-biotin
T2 construct: purchased Invitrogen
T2 sequence (Q06418 41-890): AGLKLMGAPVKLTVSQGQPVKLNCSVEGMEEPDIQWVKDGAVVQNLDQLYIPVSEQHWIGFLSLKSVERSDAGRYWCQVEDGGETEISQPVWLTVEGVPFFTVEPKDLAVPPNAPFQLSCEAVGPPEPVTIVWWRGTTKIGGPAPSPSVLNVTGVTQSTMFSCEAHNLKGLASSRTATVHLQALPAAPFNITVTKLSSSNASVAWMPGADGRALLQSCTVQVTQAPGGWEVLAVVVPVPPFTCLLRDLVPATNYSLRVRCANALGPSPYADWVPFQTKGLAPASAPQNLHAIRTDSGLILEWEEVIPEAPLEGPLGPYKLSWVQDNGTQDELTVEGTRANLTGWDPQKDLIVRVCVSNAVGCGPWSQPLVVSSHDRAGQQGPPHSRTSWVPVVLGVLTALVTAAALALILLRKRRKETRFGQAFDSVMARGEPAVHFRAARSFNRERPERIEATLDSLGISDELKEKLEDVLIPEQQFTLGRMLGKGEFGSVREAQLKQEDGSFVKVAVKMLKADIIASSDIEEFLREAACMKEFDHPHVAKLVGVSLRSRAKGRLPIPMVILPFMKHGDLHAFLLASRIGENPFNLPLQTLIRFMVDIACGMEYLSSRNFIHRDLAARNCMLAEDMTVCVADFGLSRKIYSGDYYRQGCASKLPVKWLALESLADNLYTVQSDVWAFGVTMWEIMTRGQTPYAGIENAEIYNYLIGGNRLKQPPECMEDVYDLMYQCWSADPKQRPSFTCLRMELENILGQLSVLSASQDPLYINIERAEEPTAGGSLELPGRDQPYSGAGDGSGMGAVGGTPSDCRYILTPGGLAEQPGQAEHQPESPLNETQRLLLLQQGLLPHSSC
How it was run: as §1

Structure (SMILES) | IC50 [1] [µM] | IC50 [2] [µM]
c1cc2c(cc1-c1cnc3[nH]nc(-c4ccc(N5C[C@H]6C[C@@H]5CO6)cc4)c3c1)CC[C@@H](N1C3COCC1C3)CC2 [Example 126, (1R,4R)-5-(4-{5-[(7S)-7-{3-oxa-6-azabicyclo[3.1.1]heptan-6-yl}-6,7,8,9-tetrahydro-5H-benzo[7]annulen-2-yl]-2H-pyrazolo[3,4-b]pyridin-3-yl}phenyl)-2-oxa-5-azabicyclo[2.2.1]heptane] | > 1 | > 1
FC1CN(c2ccc(-c3c[nH]c4ncc(-c5ccc6c(c5)CC[C@@H](N5C7COCC5C7)CC6)cc34)cc2)C1 [Example 127, 6-[(7S)-2-{3-[4-(3-fluoroazetidin-1-yl)phenyl]-1H-pyrrolo[2,3-b]pyridin-5-yl}-6,7,8,9-tetrahydro-5H-benzo[7]annulen-7-yl]-3-oxa-6-azabicyclo[3.1.1]heptane] | > 1 | 0.1 to 1
